The source of these data is ChEMBL document CHEMBL3044737, “Synthesis of biotinylated 18-glycyrrhetinic acid and its effect on tumor cells activity” (Med Chem Res, 2009).

pIC50: −log10 of the molar value. Calls of active or inactive are those of the source. The calls are words filed in the database; no cut-off is given here.

Data set [1] is described as follows: Stability of the compound in RPMI-1640 medium at 100 uM after 6 days. In kind it is physicochemical. As to conditions: 144 h.
The subject of data set [2] is B16. The data set can be described thus: Cytotoxicity against Mus musculus (mouse) B16 cells assessed as reduction of cell number at 50 umol/L after 12 hr by MTT assay. It is filed as functional, cell-based. In general terms: Tetrazolium dyes change colour on reduction, which living cells bring about.
In data set [3] the test system is Bel-7402. The experiment in a line: Cytotoxicity against Homo sapiens (human) Bel7402 cells assessed as reduction of cell number up to 250 umol/L after 12 hr by MTT assay. It is filed as functional, cell-based.
In data set [4] the test system is B16. The data set can be described thus: Cytotoxicity against Mus musculus (mouse) B16 cells assessed as reduction of cell number up to 250 umol/L after 12 hr by MTT assay. In kind it is functional, cell-based.
Data set [5] in a line: Stability of the compound in water at 100 uM after 24 hr. The settings on record: buffer. In kind it is physicochemical.
Data set [6] relates to Bel-7402. The data set can be described thus: Cytotoxicity against Homo sapiens (human) Bel7402 cells assessed as reduction of cell number at 50 umol/L after 12 hr by MTT assay. In kind it is functional, cell-based.
Data set [7] has as its system B16. The data set can be described thus: Cytotoxicity against Mus musculus (mouse) B16 cells assessed as reduction of cell number after 12 hr by MTT assay. As to conditions: B16, 12 h. It is filed as functional, cell-based.
Data set [8] deals with Bel-7402. The experiment in a line: Cytotoxicity against Homo sapiens (human) Bel7402 cells assessed as reduction of cell number after 12 hr by MTT assay. It is filed as functional, cell-based. The settings on record: Bel-7402, 12 h.

For the compound `CC1(C)[C@@H](O)CC[C@]2(C)[C@H]3C(=O)C=C4[C@@H]5C[C@@](C)(C(=O)O)CC[C@]5(C)CC[C@@]4(C)[C@]3(C)CC[C@@H]12` [ENOXOLONE], the Stability result is listed as “Stable” in data set [1] and “Unstable” in data set [5]. The result in data set [2] and in data set [6] was inactive. The outcome in data set [3] and in data set [4] was Active.
By pIC50 is commonly meant −log10 of the IC50, conventionally taken in molar units. Regarding `CC1(C)[C@@H](O)CC[C@]2(C)[C@H]3C(=O)C=C4[C@@H]5C[C@@](C)(C(=O)NCCCCCCNC(=O)CCCC[C@@H]6SC[C@@H]7NC(=O)N[C@@H]76)CC[C@]5(C)CC[C@@]4(C)[C@]3(C)CC[C@@H]12`, the Stability result in data set [1] and in data set [5] was “Stable” throughout. Also, the values for the pIC50 in data set [7] and in data set [8] were 3.77 and 3.76, respectively. Besides, the outcome in data set [2] and in data set [6] was inactive. Besides, the result in data set [3] and in data set [4] was Active.
